“Also recorded” adds a separate entry of the source.
What was measured:
[1] = tested on: T1, cN-II (Human cytosolic 5'-Nucleotidase); experiment: Enzyme activity of purified cytosolic cN-II (AMP-Glo assay); assay type: biochemical; conditions: cN-II 0.6 mU/Rx, 10μM AMP, 37°C for 30 min
T1 construct: purchased NovoCIB SAS
Method: • 2 Determination of enzyme activity of purified cytosolic cN-II. Activity of purified cN-II (Human cytosolic 5'-Nucleotidase) was determined using 25μl reaction buffer (50mM HEPES, pH 7.0, 100mM KCl, 20mM MgCl2, 5mM DTT, 2.5mM dATP, and 0.1mg/ml BSA) containing enzyme and AMP substrate at 10μM (96-well format). Reaction continued at 37°C for 60 minutes or for a certain time period and terminated by the addition of equal volume (25μl) of AMP-Glo™ Reagent I. Reactions were mixed well and incubated for additional 30 min at 23°C. This was followed by the addition of 50 μl of AMP Detection Solution (10μl of AMP-Glo™ Reagent II per ml of Kinase-Glo® One Solution) and incubated for additional 60 min at 23°C before reading luminescence. • 3 Determination of enzyme activity of purified CD39. Activity of CD39 was determined using reaction buffer that contains 25mM Tris, pH 7.5, 5mM CaCl2, and 0.1mg/ml BSA), with 1μM to 5μM ATP or ADP as substrate, respectively. When ATP is used as a substrate, an equal volume of Kinase-Glo® One Solution was added to CD39 reactions and incubated for 15 min before reading luminescence using a luminometer. […] Reactions were mixed well and incubated for 60min before reading luminescence using luminometer. […]

[2] = target: T2, membrane-associated CD73 of MDA-MB-231 cells (Homo sapiens, UniProt P21589); experiment: Cell-based membrane-associated CD73 activity (AMP-Glo cell-based assay)
T2 construct: cell-based membrane-associated CD73 from MDA-MB-231 following AMP-Glo cell-based assay; endogenous in cells; host or cells: MDA-MB-231
T2 sequence (P21589 27-574): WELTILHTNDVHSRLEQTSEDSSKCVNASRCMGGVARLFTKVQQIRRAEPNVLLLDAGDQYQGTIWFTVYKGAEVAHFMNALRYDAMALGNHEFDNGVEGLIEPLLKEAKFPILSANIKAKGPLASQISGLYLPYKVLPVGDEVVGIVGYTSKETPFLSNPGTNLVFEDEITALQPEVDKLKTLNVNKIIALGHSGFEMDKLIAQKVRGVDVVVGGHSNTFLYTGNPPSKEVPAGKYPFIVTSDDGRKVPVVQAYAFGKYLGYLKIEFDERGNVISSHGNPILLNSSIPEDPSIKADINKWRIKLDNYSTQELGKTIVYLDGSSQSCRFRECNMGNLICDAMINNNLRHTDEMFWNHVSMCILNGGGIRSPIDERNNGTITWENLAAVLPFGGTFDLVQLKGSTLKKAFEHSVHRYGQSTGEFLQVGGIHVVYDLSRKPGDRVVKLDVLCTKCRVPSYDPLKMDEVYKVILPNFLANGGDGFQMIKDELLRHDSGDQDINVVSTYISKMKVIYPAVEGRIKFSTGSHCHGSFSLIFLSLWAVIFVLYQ
Method: • Adherent Cells preparation and assay protocol. Cells grown in 75cm^2 flasks were trypsinized and counted, and were diluted with full medium, and plated to a tissue culture grade solid white or clear bottom plate, at cell density of 25K cells in full medium (10% FBS and 1% Pen/Strep) per well, and kept overnight at 37°C in a 5% CO2 incubator. Fresh medium was added an hour before use by pipetting out ¾ volume of overnight medium from each well and replaced with a ¾ volume of fresh full growing medium. Cells were washed twice with HBSS by taking out whole medium from each well and replaced with fresh 100μl of HBSS to each well. […]
For CD73 activity using AMP as substrate, 25μl aliquots were withdrawn from each well at the desired time point and added to assay solid white plate (Corning Costar 3912 or equivalent) followed by the addition of 25μl of AMP-Glo™ Reagent I to each well, mixed well and incubated for 30min at 23°C.This was followed by the addition of 50μl per well of AMP-Glo™ Detection Solution (1ml of Kinase-Glo™ One Solution mixed with 10μl of AMP-Glo™ Reagent II), see AMP-Glo™ TM#384. This was followed by incubating the mixture for 60min at 23°C, before reading the plate using a luminometer. […]

luciferase = experiment: Control test of the compound on luciferase activity; assay type: biochemical; conditions: control for assay interference
Text: Although we have not tested this assay using orthogonal assay, very recent publication used this technology (AMP Glo) to develop what they called “an exceptionally potent inhibitor of human […]” (Bowman CE, da Silva RG, Pham A, Young SW. An exceptionally potent inhibitor of human CD73. Biochemistry 2019; 58: 3331-3334) and compared their kinetic data using inorganic phosphate release and the data confirmed the validity of bioluminescence approach. Furthermore, since we launched ADP Glo for kinases and ATPases, it has been cited in over 1500 citations as well as numerus patents, and it is the main assay used for large scale screening for inhibitors in HTS laboratories. Besides, we have not found potent inhibitors of this assay other than few luciferase inhibitors which would be excluded when controls were run simultaneously. Protein concentration used in western blots for CD39 or CD39 in cells should be shown using either a housekeeping control, or the total protein concentration shown if other methods were used. Alternatively, a FACS based assay could be performed to show expression of cell surface […] or CD39.

Row | Compound | inhibition of cN-II [1] | inhibition of membrane-associated CD73 activity ([2]; 50μM inhibitor, 25k MDA-MB-231 cells per well, 10μM AMP, 37°C, time course) | IC50 ([2]; 25K cells per well, 5μM AMP, 90min at 37°C) | effect on luciferase activity (luciferase)
1 | Nc1ncnc2c1ncn2[C@@H]1O[C@H](COP(=O)(O)CP(=O)(O)O)[C@@H](O)[C@H]1O [AMP-CP, Adenosine 5'-(α, β-methylene) diphosphate] | minimal or no inhibition; also recorded: no inhibition | inhibited | 2.1 µM | –
2 | [Na+].[Na+].[Na+].[Na+].[Na+].[Na+].[O]=[W](=[O])([O-])[O-].[O]=[W](=[O])([O-])[O-].[O]=[W](=[O])([O-])[O-].[O]=[W](=[O])=[O].[O]=[W](=[O])=[O].[O]=[W](=[O])=[O].[O]=[W](=[O])=[O].[O]=[W](=[O])=[O].[O]=[W](=[O])=[O].[O]=[W](=[O])=[O].[O]=[W](=[O])=[O].[O]=[W](=[O])=[O] [POM1, Sodium metatungstate] | – | – | – | no inhibitory effect

From article PMC6814236, “Monitoring and characterizing soluble and membrane-bound ectonucleotidases CD73 and CD39” (PLoS ONE, 2019)
